For one series, the target named is recombinant human GALK1 (Homo sapiens, UniProt P51570). The series can be described thus: hGALK1 biochemical activity assay (Kinase-Glo Plus, ATP depletion). In short, it runs like this:
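Turnover is measured as ATP depletion by Kinase-Glo Plus luminescence after a 1 h room-temperature reaction. Compounds span 11 concentrations, 57.4 μM–0.97 nM, in final 20 mM HEPES pH 8.0 with 5 mM MgCl2. The substrate solution held 35 μM ATP; the added solution held 5 nM human or mouse GALK1 and 100 μM galactose.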
On the technique in general: In Kinase-Glo more light means more ATP remaining.

The target in another series is recombinant mouse GALK1 (Mus musculus, UniProt Q9R0N0). Briefly: mGALK1 biochemical activity assay (Kinase-Glo Plus, ATP depletion). In a few lines: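 Recombinant GALK1 (5 nM) with 100 μM galactose; GALK1 turnover read as ATP depletion by Kinase-Glo Plus luminescence. Reaction ran 1 h at room temperature before detection reagent was added.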
The nature of series [1]: rat microsomal stability (RLM). The note with it: microsomal half-life.
Series [2] can be described thus: aqueous kinetic solubility.
The mark [3] stands for this setting: recombinant human GALK1, Kinase-Glo Plus ATP depletion, read-out: hGALK.
Setting [4] is: recombinant mouse GALK1, Kinase-Glo Plus ATP depletion, read-out: mGALK.
[5] abbreviates: Tables 2-15, 35 μM ATP, 100 μM galactose, 1 h, bracketed figure after some values (e.g. −1.2) is undefined and not reported, read-out: hGALK IC50.
Where [6] appears, read: Tables 2-15, 35 μM ATP, 100 μM galactose, 1 h, bracketed figure after some values is undefined and not reported, read-out: mGALK IC50.

Molecules are shown by their SMILES. Read-outs that look alike come from different tables or passages of the source.

Sequence of recombinant human GALK1 (P51570 whole entry): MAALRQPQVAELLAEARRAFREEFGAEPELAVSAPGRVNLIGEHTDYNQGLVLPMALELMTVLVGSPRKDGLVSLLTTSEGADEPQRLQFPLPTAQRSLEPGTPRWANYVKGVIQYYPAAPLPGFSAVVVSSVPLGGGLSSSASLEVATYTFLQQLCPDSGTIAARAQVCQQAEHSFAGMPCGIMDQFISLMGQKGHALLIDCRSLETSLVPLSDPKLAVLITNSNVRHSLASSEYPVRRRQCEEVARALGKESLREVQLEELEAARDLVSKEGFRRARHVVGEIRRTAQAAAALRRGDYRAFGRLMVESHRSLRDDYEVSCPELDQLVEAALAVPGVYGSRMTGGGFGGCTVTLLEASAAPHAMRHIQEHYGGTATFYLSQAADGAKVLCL
Sequence of recombinant mouse GALK1 (Q9R0N0 whole entry): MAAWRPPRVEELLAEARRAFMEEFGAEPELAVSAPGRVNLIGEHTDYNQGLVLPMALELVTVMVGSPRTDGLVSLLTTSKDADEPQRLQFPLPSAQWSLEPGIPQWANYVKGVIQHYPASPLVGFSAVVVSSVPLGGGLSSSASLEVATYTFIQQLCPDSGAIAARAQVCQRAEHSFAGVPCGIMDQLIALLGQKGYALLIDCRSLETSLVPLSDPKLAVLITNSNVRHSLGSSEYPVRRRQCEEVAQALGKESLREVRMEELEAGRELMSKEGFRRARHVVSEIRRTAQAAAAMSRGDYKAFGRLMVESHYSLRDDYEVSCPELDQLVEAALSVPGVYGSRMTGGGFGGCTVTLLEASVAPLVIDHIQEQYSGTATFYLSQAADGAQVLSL

With `CC1=C(C(=O)Nc2ccc(C(=O)O)cn2)C(c2ccccc2Cl)N=C(Nc2nc3ccc(F)cc3o2)N1` (stereo not shown) [Compound 26, 6-(4-(2-chlorophenyl)-2-((6-fluorobenzo[d]oxazol-2-yl)amino)-6-methyl-1,4-dihydropyrimidine-5-carboxamido)nicotinic acid], the IC50 on recombinant human GALK1 (setting [3]) worked out at 0.68 µM; at recombinant mouse GALK1 (setting [4]) it was 3.43 µM. For the same molecule, in series [1], the “Metab. Stabil. (m)” value is recorded as >30 m. Further, the “Perm. (1 × 10^−6 cm/sec)” value in “PAMPA permeability” is given as <1 1 × 10^−6 cm/sec. Moreover, the “Sol.” value in series [2] was >77 µg/mL.

On to `CC1=C(C(=O)Nc2cc(C(=O)O)ccc2Cl)C(c2ccccc2Cl)N=C(Nc2nc3ccc(F)cc3o2)N1` (stereo not shown) [Compound 29, 4-chloro-3-(4-(2-chlorophenyl)-2-((6-fluorobenzo[d]oxazol-2-yl)amino)-6-methyl-1,4-dihydropyrimidine-5-carboxamido)benzoic acid], for which the IC50 on recombinant human GALK1 (setting [3]) amounted to 1.54 µM; on recombinant mouse GALK1 (setting [4]) it was 19.3 µM. The “Metab. Stabil. (m)” value in series [1] is >30 m. Further, the “Perm. (1 × 10^−6 cm/sec)” value in “PAMPA permeability” is 29.6 1 × 10^−6 cm/sec. Moreover, in series [2], the “Sol.” value stood at 54.0 µg/mL.

Turning to `CC1=C(C(=O)Nc2cc(C(=O)O)ccc2F)C(c2ccccc2Cl)N=C(Nc2nc3ccc(F)cc3o2)N1` (stereo not shown) [Compound 30, 3-(4-(2-chlorophenyl)-2-((6-fluorobenzo[d]oxazol-2-yl)amino)-6-methyl-1,4-dihydropyrimidine-5-carboxamido)-4-fluorobenzoic acid], the IC50 on recombinant human GALK1 (setting [3]) turned out to be 2.17 µM; at recombinant mouse GALK1 (setting [4]), 6.85 µM. Moreover, the “Metab. Stabil. (m)” value in series [1] was >30 m. Further, the “Perm. (1 × 10^−6 cm/sec)” value in the series “PAMPA permeability” is recorded as 2.2 1 × 10^−6 cm/sec. Also, the “Sol.” value in series [2] was found to be 35.7 µg/mL.

With `CC1=C(C(=O)Nc2cc(CO)ccn2)C(c2ccccc2Cl)N=C(Nc2nc3ccc(F)cc3o2)N1` (stereo not shown) [Compound 37, 4-(2-chlorophenyl)-2-((6-fluorobenzo[d]oxazol-2-yl)amino)-N-(4-(hydroxymethyl)pyridin-2-yl)-6-methyl-1,4-dihydropyrimidine-5-carboxamide], the IC50 on recombinant human GALK1 (setting [5]) is 3.06 µM; at recombinant human GALK1 (setting [3]) it was 3.06 µM; at recombinant mouse GALK1 (setting [6]), 10.9 µM; at recombinant mouse GALK1 (setting [4]), 10.9 µM. The “Metab. Stabil. (m)” value in series [1] is recorded as >30 m. In addition, the “Perm. (1 × 10^−6 cm/sec)” value in the series “PAMPA permeability” is given as 59.9 1 × 10^−6 cm/sec. Besides, the “Sol.” value in series [2] was <1 µg/mL.

On to `CC1=C(C(=O)Nc2cc(C(N)=O)ccn2)C(c2ccccc2Cl)N=C(Nc2nc3ccc(F)cc3o2)N1` (stereo not shown) [Compound 38, N-(4-carbamoylpyridin-2-yl)-4-(2-chlorophenyl)-2-((6-fluorobenzo[d]oxazol-2-yl)amino)-6-methyl-1,4-dihydropyrimidine-5-carboxamide], for which the IC50 on recombinant human GALK1 (setting [5]) was found to be 4.85 µM; on recombinant human GALK1 (setting [3]) it was 4.85 µM; on recombinant mouse GALK1 (setting [6]), 19.3 µM; at recombinant mouse GALK1 (setting [4]), 19.3 µM. The “Metab. Stabil. (m)” value in series [1] is >30 m. Also, in the series “PAMPA permeability”, the “Perm. (1 × 10^−6 cm/sec)” value is 15.5 1 × 10^−6 cm/sec. Further, the “Sol.” value in series [2] turned out to be 2.4 µg/mL.

For the molecule `CC1=C(C(=O)Nc2cc(C#N)ccn2)C(c2ccccc2Cl)N=C(Nc2nc3ccc(F)cc3o2)N1` (stereo not shown) [Compound 39, 4-(2-chlorophenyl)-N-(4-cyanopyridin-2-yl)-2-((6-fluorobenzo[d]oxazol-2-yl)amino)-6-methyl-1,4-dihydropyrimidine-5-carboxamide], the IC50 was found to be 4.32 µM on recombinant human GALK1 (setting [5]), 4.32 µM at recombinant human GALK1 (setting [3]), 4.85 µM at recombinant mouse GALK1 (setting [6]) and 4.85 µM at recombinant mouse GALK1 (setting [4]). The “Metab. Stabil. (m)” value in series [1] was >30 m. Also, the “Perm. (1 × 10^−6 cm/sec)” value in the series “PAMPA permeability” was <6.8 1 × 10^−6 cm/sec. In addition, the “Sol.” value in series [2] is <1 µg/mL.

On to `CC1=C(C(=O)Nc2ccc(C#N)cn2)C(c2ccccc2Cl)N=C(Nc2nc3ccc(F)cc3o2)N1` (stereo not shown) [Compound 40, 4-(2-chlorophenyl)-N-(5-cyanopyridin-2-yl)-2-((6-fluorobenzo[d]oxazol-2-yl)amino)-6-methyl-1,4-dihydropyrimidine-5-carboxamide], for which the IC50 on recombinant human GALK1 (setting [3]) and at recombinant mouse GALK1 (setting [4]) was 13.7 µM in each case. Also, the “Metab. Stabil. (m)” value in series [1] is reported as >30 m. Also, the “Perm. (1 × 10^−6 cm/sec)” value in “PAMPA permeability” is on record as <7.8 1 × 10^−6 cm/sec. Moreover, the “Sol.” value in series [2] is <1 µg/mL.

`CC1=C(C(=O)Nc2cc(-c3nn[nH]n3)ccn2)C(c2ccccc2Cl)N=C(Nc2nc3ccc(F)cc3o2)N1` (stereo not shown) [Compound 41, N-(4-(2H-tetrazol-5-yl)pyridin-2-yl)-4-(2-chlorophenyl)-2-((6-fluorobenzo[d]oxazol-2-yl)amino)-6-methyl-1,4-dihydropyrimidine-5-carboxamide]: the IC50 at recombinant human GALK1 (setting [5]) worked out at 0.77 µM; at recombinant human GALK1 (setting [3]) it was 0.77 µM; on recombinant mouse GALK1 (setting [6]), 7.69 µM; on recombinant mouse GALK1 (setting [4]), 7.69 µM. The “Metab. Stabil. (m)” value in series [1] was >30 m. For the same molecule, the “Perm. (1 × 10^−6 cm/sec)” value in the series “PAMPA permeability” was <1 1 × 10^−6 cm/sec. Further, the “Sol.” value in series [2] came out at 29.9 µg/mL.

For the molecule `CC1=C(C(=O)Nc2ccccn2)C(c2ccccc2Cl)N=C(Nc2nc3ccc(F)cc3o2)N1` (stereo not shown) [Compound 43, 4-(2-chlorophenyl)-2-((6-fluorobenzo[d]oxazol-2-yl)amino)-6-methyl-N-(pyridin-2-yl)-1,4-dihydropyrimidine-5-carboxamide], the IC50 on recombinant human GALK1 (setting [3]) is 4.32 µM; at recombinant mouse GALK1 (setting [4]), 10.9 µM. Further, the “Metab. Stabil. (m)” value in series [1] is given as >30 m. The “Perm. (1 × 10^−6 cm/sec)” value in the series “PAMPA permeability” is on record as 171.11 1 × 10^−6 cm/sec. In series [2], the “Sol.” value was <1 µg/mL.

On to `CC1=C(C(=O)NCc2cnn(C)c2)C(c2ccccc2Cl)N=C(Nc2nc3ccc(F)cc3o2)N1` (stereo not shown) [Compound 44, 4-(2-chlorophenyl)-2-((6-fluorobenzo[d]oxazol-2-yl)amino)-6-methyl-N-((1-methyl-1H-pyrazol-4-yl)methyl)-1,4-dihydropyrimidine-5-carboxamide], for which the values for the IC50 at recombinant human GALK1 (setting [3]) and on recombinant mouse GALK1 (setting [4]) were 1.72 µM and 12.2 µM, respectively. The “Metab. Stabil. (m)” value in series [1] is recorded as 26 m. For the same molecule, in the series “PAMPA permeability”, the “Perm. (1 × 10^−6 cm/sec)” value is 942.87 1 × 10^−6 cm/sec. In series [2], the “Sol.” value turned out to be 13.7 µg/mL.

As to `CC1=C(C(=O)Nc2cc(C(=O)O)ccn2)[C@H](c2ccc(C)cc2Cl)N=C(Nc2nc3ccc(F)cc3o2)N1` [Compound 55, (R)-2-(4-(2-chloro-4-methylphenyl)-2-((6-fluorobenzo[d]oxazol-2-yl)amino)-6-methyl-1,4-dihydropyrimidine-5-carboxamido)isonicotinic acid], the IC50 at recombinant human GALK1 (setting [5]) worked out at 15 µM; on recombinant human GALK1 (setting [3]), 0.15 µM; on recombinant mouse GALK1 (setting [6]), 1.37 µM; at recombinant mouse GALK1 (setting [4]), 1.37 µM. Besides, the “Metab. Stabil. (m)” value in series [1] was >30 m. Further, the “Perm. (1 × 10^−6 cm/sec)” value in the series “PAMPA permeability” is recorded as <1 1 × 10^−6 cm/sec. Moreover, in series [2], the “Sol.” value is >79 µg/mL.

Take `CC1=C(C(=O)Nc2cc(C(=O)O)ccn2)[C@@H](c2ccc(C)cc2Cl)N=C(Nc2nc3ccc(F)cc3o2)N1` [Compound 56, (S)-2-(4-(2-chloro-4-methylphenyl)-2-((6-fluorobenzo[d]oxazol-2-yl)amino)-6-methyl-1,4-dihydropyrimidine-5-carboxamido)isonicotinic acid]: the IC50 on recombinant human GALK1 (setting [5]) came to 1.93 µM; on recombinant human GALK1 (setting [3]) it was 1.93 µM; at recombinant mouse GALK1 (setting [6]), 6.85 µM; at recombinant mouse GALK1 (setting [4]), 6.85 µM. Moreover, the “Metab. Stabil. (m)” value in series [1] is given as >30 m. The “Perm. (1 × 10^−6 cm/sec)” value in “PAMPA permeability” is on record as <1 1 × 10^−6 cm/sec. For the same molecule, the “Sol.” value in series [2] amounted to 53.8 µg/mL.

Consider `CC1=C(C(=O)Nc2cc(C(=O)O)ccn2)C(c2ccc(N3CCCC3)cc2Cl)N=C(Nc2nc3ccc(F)cc3o2)N1` (stereo not shown) [Compound 57, 2-(4-(2-chloro-4-(pyrrolidin-1-yl)phenyl)-2-((6-fluorobenzo[d]oxazol-2-yl)amino)-6-methyl-1,4-dihydropyrimidine-5-carboxamido)isonicotinic acid], for which the IC50 on recombinant human GALK1 (setting [5]) was found to be 1.09 µM; at recombinant human GALK1 (setting [3]), 4.09 µM; at recombinant mouse GALK1 (setting [6]), 10.9 µM; on recombinant mouse GALK1 (setting [4]), 10.9 µM. Further, in series [1], the “Metab. Stabil. (m)” value is listed as >30 m. The “Perm. (1 × 10^−6 cm/sec)” value in “PAMPA permeability” was <1 1 × 10^−6 cm/sec. Moreover, the “Sol.” value in series [2] was >87 µg/mL.

Regarding `CC1=C(C(=O)Nc2cc(C(=O)O)ccn2)C(c2ccc(N3CCCCC3)cc2Cl)N=C(Nc2nc3ccc(F)cc3o2)N1` (stereo not shown) [Compound 58, 2-(4-(2-chloro-4-(piperidin-1-yl)phenyl)-2-((6-fluorobenzo[d]oxazol-2-yl)amino)-6-methyl-1,4-dihydropyrimidine-5-carboxamido)isonicotinic acid], the IC50 is 1.22 µM at recombinant human GALK1 (setting [5]), 12.2 µM at recombinant mouse GALK1 (setting [6]) and 12.2 µM at recombinant mouse GALK1 (setting [4]). The “Metab. Stabil. (m)” value in series [1] is >30 m. Moreover, the “Perm. (1 × 10^−6 cm/sec)” value in the series “PAMPA permeability” is given as 1.35 1 × 10^−6 cm/sec. Further, the “Sol.” value in series [2] worked out at 1.92 µg/mL.

On to `CC1=C(C(=O)Nc2cc(C(=O)O)ccn2)C(c2ccc(N3CCOCC3)cc2Cl)N=C(Nc2nc3ccc(F)cc3o2)N1` (stereo not shown) [Compound 59, 2-(4-(2-chloro-4-morpholinphenyl)-2-((6-fluorobenzo[d]oxazol-2-yl)amino)-6-methyl-1,4-dihydropyrimidine-5-carboxamido)isonicotinic acid], for which the IC50 amounted to 0.43 µM on recombinant human GALK1 (setting [3]), 3.85 µM at recombinant mouse GALK1 (setting [6]) and 3.85 µM on recombinant mouse GALK1 (setting [4]). For the same molecule, the “Metab. Stabil. (m)” value in series [1] was >30 m. In “PAMPA permeability”, the “Perm. (1 × 10^−6 cm/sec)” value is reported as 26.5 1 × 10^−6 cm/sec. Further, the “Sol.” value in series [2] was >89 µg/mL.

(Values after patent publication US20230158025A1 (UNIVERSITY OF UTAH RESEARCH FOUNDATION, priority 2020, published 2023).)
